Laboratory results published in ChEMBL document CHEMBL1133265 (Bioorg Med Chem Lett, 2000).

Assays:
[1] = target: Norepinephrine transporter (Rattus norvegicus, UniProt Q9WTR4); assay: Compound has been evaluated for its affinity towards Norepinephrine transporter by displacing the radio isotope [3H]nisoxetine from rat forebrain
[2] = target: Sodium-dependent dopamine transporter (Rattus norvegicus, UniProt P23977); assay: Displacement of [3H]GBR-12935 from rat forebrain Dopamine transporter
[3] = target: Sodium-dependent serotonin transporter (Rattus norvegicus, UniProt P31652); assay: Affinity for Serotonin transporter by displacing [3H]paroxetine from rat forebrain
Sequence of Sodium-dependent serotonin transporter (P31652 whole entry): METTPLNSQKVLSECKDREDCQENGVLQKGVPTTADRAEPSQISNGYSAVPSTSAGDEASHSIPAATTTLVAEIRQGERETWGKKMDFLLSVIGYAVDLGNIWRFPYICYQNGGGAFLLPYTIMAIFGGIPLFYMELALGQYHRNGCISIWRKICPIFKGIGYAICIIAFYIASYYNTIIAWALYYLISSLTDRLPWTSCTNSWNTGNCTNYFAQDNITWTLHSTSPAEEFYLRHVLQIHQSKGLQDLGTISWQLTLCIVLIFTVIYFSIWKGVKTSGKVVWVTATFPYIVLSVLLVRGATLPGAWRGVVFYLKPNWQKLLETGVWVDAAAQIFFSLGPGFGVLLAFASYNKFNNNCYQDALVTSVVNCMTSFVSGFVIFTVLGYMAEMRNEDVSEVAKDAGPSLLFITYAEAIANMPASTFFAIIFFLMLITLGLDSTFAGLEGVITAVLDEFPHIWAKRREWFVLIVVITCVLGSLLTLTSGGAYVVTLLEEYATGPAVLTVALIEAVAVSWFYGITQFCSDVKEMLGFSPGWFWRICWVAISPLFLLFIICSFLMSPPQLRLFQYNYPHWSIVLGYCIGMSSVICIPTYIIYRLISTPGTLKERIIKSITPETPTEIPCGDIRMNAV

Sequence of Norepinephrine transporter (Q9WTR4 whole entry): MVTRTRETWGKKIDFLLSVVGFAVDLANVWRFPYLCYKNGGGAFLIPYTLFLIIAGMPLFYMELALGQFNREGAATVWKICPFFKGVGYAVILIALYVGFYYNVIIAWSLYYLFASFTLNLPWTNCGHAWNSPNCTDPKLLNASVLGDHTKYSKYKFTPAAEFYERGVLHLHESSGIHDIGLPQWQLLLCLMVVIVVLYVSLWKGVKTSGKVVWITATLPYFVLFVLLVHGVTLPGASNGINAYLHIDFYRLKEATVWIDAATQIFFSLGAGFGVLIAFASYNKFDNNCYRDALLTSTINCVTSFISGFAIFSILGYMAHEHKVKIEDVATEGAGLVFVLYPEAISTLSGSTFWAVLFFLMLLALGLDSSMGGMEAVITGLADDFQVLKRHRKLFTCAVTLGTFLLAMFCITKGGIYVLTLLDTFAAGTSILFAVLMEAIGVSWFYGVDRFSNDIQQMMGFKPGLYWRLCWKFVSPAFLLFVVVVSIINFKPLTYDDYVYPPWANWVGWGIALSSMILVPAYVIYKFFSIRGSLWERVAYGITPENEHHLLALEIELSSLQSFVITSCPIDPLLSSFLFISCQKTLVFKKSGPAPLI
Sequence of Sodium-dependent dopamine transporter (P23977 whole entry): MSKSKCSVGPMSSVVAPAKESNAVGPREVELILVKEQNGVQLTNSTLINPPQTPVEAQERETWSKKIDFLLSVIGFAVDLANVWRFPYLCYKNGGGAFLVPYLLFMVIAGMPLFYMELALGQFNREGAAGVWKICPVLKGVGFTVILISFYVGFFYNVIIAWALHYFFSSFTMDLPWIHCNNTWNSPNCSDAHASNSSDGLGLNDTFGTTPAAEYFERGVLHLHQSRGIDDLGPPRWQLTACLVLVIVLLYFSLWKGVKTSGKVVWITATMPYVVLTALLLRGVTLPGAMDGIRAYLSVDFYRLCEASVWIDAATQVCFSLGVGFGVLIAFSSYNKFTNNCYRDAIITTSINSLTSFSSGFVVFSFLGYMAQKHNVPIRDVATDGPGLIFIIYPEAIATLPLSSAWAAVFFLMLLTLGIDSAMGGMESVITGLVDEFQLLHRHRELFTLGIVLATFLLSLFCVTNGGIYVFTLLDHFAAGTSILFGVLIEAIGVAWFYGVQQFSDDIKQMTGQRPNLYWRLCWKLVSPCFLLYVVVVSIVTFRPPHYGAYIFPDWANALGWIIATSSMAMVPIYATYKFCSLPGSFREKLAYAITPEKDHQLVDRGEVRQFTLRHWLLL

## COC(=O)C1C(c2ccc(-c3ccc(OC)cc3)cc2)CC2CCC1N2C (centres undefined)
[1]
  Ki: 352 nM

## COC(=O)C1C(c2ccc(-c3ccccc3OC)cc2)CC2CCC1N2C (centres undefined)
[1]
  Ki: 10000 nM

## COC(=O)C1C(c2ccc(-c3ccc([N+](=O)[O-])cc3)cc2)CC2CCC1N2C (centres undefined)
[1]
  Ki: 370 nM

## COC(=O)C1C(c2ccc(-c3cccc([N+](=O)[O-])c3)cc2)CC2CCC1N2C (centres undefined)
[1]
  Ki: 963 nM

## COC(=O)[C@@H]1C2CC[C@H](C[C@@H]1c1ccc(I)cc1)N2C
[2]
  Ki: 0.96 nM
[1]
  Ki: 2.8 nM
[3]
  Ki: 0.46 nM

## COC(=O)C1C(c2ccc(-c3ccccc3[N+](=O)[O-])cc2)CC2CCC1N2C (centres undefined)
[2]
  Ki: > 3000 nM
[1]
  Ki: > 3000 nM
[3]
  Ki: > 3000 nM

## COC(=O)C1C(c2ccc(-c3ccccc3C(C)=O)cc2)CC2CCC1N2C (centres undefined)
[1]
  Ki: > 20000 nM

## COC(=O)C1C(c2ccc(-c3ccc(C(C)=O)cc3)cc2)CC2CCC1N2C (centres undefined)
[1]
  Ki: 754 nM

## COC(=O)C1C(c2ccc(-c3cccc(OC)c3)cc2)CC2CCC1N2C (centres undefined)
[1]
  Ki: > 3000 nM

## COC(=O)C1C(c2ccc(-c3cccc(C(C)=O)c3)cc2)CC2CCC1N2C (centres undefined)
[1]
  Ki: > 50000 nM
